Literature values in PMC9851200, “Multiparameter phenotypic screening for endogenous TFEB and TFE3 translocation identifies novel chemical series modulating lysosome function” (Autophagy, 2022).

What was measured:
Set-up in all cases: method as in original PKIS2 published data
[1] = target: T1, kinases (KINOMEscan panel) (Homo sapiens, UniProt Q02156); conditions: kinase PRKCE; Published KINOMEscan; ref original PKIS2 published data; cited from earlier work
T1 sequence (Q02156 1-737): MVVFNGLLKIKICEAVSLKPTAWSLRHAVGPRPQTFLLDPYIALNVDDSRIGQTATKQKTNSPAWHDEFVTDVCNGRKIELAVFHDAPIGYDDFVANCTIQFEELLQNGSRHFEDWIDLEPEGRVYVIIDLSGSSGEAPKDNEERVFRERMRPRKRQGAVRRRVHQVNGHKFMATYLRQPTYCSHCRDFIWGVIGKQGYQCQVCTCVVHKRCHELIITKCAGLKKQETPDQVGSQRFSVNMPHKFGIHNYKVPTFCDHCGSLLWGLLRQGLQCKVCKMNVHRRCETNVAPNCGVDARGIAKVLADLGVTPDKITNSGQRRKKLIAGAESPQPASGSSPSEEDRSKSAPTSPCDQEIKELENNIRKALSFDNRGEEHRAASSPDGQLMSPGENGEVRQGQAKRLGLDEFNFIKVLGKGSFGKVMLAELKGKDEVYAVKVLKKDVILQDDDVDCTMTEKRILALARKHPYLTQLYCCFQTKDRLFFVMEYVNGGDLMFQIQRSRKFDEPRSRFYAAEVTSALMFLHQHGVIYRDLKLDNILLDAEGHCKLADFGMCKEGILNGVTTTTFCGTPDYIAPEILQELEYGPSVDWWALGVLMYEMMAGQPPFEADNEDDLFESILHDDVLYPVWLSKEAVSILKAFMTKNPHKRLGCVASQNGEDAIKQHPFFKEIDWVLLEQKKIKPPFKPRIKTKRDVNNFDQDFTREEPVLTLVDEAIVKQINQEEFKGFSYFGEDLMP

[2] = target: kinases (KINOMEscan panel) (Homo sapiens, UniProt O95747); conditions: Published KINOMEscan; ref original PKIS2 published data; cited from earlier work
[3] = target: kinases (KINOMEscan panel) (Homo sapiens, UniProt Q9P1W9); conditions: PIM2; Published KINOMEscan; ref original PKIS2 published data; cited from earlier work
[4] = target: T2, kinases (KINOMEscan panel) (Homo sapiens, UniProt P54760); conditions: EPHB4; Published KINOMEscan; ref original PKIS2 published data; cited from earlier work
T2 sequence (P54760 16-987): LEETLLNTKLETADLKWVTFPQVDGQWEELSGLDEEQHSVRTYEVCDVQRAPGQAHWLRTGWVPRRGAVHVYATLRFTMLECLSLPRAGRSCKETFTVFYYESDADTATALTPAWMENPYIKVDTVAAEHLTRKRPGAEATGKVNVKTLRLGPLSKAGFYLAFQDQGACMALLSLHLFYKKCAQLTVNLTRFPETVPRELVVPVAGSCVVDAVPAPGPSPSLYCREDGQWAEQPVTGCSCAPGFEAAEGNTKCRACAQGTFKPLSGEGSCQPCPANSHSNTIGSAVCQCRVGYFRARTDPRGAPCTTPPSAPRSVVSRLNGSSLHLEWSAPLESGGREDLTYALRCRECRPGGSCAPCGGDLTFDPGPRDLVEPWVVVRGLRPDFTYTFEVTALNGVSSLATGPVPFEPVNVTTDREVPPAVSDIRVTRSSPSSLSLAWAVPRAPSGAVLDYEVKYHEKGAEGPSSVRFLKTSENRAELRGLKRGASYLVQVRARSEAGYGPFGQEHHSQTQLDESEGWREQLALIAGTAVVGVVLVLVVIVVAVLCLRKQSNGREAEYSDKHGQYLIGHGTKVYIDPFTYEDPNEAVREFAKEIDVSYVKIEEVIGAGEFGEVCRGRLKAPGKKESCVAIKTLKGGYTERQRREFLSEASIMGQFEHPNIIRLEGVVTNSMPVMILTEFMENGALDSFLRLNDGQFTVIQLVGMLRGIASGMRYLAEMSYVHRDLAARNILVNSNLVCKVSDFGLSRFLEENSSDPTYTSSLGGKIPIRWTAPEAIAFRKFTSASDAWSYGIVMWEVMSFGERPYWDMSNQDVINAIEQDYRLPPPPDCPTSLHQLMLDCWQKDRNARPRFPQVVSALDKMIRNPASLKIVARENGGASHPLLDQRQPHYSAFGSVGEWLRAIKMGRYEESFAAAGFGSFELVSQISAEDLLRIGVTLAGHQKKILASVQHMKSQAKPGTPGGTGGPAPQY

[5] = target: kinases (KINOMEscan panel) (Homo sapiens, UniProt P00533); conditions: kinase EGFR; Published KINOMEscan; ref original PKIS2 published data; cited from earlier work
[6] = target: kinases (KINOMEscan panel) (Homo sapiens, UniProt O43683); conditions: kinase BUB1; Published KINOMEscan; ref original PKIS2 published data; cited from earlier work
[7] = target: kinases (KINOMEscan panel) (Homo sapiens, UniProt P43405); conditions: SYK; Published KINOMEscan; ref original PKIS2 published data; cited from earlier work
[8] = target: kinases (KINOMEscan panel) (Homo sapiens, UniProt Q15375); conditions: EPHA7; Published KINOMEscan; ref original PKIS2 published data; cited from earlier work
[9] = target: kinases (KINOMEscan panel) (Homo sapiens, UniProt P29597); conditions: Published KINOMEscan, ref original PKIS2 published data, cited from earlier work
Chain of kinases (KINOMEscan panel) (Homo sapiens, UniProt P29597) (P29597 whole entry): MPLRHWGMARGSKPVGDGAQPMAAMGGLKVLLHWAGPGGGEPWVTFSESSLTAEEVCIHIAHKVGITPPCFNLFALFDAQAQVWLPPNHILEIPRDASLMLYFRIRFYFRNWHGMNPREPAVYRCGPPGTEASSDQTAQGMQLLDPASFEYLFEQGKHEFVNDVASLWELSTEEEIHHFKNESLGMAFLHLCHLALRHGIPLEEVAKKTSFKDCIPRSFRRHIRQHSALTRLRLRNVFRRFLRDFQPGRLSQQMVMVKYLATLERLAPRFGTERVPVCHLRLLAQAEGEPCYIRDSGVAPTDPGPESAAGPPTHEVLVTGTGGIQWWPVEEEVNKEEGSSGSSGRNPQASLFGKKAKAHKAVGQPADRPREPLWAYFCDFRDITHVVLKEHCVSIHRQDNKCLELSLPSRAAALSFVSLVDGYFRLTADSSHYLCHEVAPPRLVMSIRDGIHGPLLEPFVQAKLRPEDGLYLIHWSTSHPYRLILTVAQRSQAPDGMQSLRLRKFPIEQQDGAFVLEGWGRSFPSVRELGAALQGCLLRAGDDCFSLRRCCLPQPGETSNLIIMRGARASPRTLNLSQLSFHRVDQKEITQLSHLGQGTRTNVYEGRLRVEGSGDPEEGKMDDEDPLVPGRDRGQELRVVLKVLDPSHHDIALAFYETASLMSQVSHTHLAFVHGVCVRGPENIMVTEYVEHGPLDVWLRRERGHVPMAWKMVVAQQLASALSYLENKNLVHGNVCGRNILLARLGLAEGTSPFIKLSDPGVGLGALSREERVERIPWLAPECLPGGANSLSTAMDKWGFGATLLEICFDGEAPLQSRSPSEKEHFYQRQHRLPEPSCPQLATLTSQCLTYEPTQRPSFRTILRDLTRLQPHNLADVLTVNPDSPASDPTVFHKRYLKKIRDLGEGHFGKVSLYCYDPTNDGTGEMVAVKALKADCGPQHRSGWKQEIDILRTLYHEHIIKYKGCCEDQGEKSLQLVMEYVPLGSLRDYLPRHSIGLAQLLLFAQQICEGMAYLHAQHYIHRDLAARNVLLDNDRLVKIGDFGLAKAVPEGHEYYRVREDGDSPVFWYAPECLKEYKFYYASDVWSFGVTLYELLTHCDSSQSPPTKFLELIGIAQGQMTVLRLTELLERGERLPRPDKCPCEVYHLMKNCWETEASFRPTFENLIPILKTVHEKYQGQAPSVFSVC

Chain of kinases (KINOMEscan panel) (Homo sapiens, UniProt Q15375) (Q15375 28-998): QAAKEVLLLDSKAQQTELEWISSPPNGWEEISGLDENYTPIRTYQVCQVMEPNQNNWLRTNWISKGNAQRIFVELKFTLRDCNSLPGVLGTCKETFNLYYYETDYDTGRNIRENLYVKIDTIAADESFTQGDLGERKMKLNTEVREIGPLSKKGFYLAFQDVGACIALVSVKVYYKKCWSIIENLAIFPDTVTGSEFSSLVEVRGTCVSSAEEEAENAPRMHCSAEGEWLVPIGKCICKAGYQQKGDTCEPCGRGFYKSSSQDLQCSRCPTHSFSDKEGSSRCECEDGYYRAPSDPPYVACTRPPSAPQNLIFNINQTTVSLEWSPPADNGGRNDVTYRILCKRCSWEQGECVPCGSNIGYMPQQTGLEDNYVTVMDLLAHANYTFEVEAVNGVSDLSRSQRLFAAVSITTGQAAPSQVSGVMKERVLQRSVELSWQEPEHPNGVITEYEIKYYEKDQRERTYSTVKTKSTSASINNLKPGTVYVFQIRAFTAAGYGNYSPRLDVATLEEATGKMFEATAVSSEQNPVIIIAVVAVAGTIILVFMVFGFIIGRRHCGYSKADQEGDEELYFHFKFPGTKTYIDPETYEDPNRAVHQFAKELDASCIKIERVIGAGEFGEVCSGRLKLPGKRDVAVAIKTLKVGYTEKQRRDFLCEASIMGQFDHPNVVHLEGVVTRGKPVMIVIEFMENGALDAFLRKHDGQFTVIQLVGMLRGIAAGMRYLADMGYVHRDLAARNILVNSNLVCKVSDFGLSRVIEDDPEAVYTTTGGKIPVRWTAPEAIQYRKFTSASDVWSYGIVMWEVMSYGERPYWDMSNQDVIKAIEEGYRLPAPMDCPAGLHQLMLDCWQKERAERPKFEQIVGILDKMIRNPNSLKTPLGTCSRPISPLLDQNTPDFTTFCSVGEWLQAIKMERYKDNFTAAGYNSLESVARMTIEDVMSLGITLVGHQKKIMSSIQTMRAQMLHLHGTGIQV
Chain of kinases (KINOMEscan panel) (Homo sapiens, UniProt P00533) (P00533 25-1210): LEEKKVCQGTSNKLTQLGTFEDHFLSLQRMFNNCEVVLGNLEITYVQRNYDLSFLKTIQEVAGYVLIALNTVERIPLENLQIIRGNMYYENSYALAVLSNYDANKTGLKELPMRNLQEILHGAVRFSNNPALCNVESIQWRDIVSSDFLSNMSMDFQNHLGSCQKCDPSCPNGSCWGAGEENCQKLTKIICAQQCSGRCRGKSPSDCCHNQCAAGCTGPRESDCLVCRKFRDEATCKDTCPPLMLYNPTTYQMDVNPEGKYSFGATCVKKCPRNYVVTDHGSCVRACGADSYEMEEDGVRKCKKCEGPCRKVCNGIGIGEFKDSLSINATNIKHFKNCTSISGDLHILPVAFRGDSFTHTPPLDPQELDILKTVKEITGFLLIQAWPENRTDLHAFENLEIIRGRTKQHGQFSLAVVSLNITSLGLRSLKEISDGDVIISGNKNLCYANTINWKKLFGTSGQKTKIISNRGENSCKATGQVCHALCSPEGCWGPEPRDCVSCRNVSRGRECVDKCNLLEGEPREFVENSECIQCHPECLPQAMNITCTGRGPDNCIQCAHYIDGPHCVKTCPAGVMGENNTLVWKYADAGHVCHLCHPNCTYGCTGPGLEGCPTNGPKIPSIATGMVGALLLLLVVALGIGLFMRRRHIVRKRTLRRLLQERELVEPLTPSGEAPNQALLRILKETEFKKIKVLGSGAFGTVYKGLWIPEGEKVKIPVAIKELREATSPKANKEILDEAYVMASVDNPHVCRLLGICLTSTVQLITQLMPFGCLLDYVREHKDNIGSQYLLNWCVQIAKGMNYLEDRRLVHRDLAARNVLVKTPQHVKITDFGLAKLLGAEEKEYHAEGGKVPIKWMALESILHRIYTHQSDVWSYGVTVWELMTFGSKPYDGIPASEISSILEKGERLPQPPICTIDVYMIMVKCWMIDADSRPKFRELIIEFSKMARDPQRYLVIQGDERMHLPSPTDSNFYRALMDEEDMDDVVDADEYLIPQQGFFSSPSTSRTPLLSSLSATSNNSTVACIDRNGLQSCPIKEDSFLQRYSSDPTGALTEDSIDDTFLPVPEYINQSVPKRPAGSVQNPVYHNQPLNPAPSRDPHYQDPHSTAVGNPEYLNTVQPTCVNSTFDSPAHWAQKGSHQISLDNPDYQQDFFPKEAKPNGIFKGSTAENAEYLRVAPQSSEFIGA
Chain of kinases (KINOMEscan panel) (Homo sapiens, UniProt O43683) (O43683 whole entry): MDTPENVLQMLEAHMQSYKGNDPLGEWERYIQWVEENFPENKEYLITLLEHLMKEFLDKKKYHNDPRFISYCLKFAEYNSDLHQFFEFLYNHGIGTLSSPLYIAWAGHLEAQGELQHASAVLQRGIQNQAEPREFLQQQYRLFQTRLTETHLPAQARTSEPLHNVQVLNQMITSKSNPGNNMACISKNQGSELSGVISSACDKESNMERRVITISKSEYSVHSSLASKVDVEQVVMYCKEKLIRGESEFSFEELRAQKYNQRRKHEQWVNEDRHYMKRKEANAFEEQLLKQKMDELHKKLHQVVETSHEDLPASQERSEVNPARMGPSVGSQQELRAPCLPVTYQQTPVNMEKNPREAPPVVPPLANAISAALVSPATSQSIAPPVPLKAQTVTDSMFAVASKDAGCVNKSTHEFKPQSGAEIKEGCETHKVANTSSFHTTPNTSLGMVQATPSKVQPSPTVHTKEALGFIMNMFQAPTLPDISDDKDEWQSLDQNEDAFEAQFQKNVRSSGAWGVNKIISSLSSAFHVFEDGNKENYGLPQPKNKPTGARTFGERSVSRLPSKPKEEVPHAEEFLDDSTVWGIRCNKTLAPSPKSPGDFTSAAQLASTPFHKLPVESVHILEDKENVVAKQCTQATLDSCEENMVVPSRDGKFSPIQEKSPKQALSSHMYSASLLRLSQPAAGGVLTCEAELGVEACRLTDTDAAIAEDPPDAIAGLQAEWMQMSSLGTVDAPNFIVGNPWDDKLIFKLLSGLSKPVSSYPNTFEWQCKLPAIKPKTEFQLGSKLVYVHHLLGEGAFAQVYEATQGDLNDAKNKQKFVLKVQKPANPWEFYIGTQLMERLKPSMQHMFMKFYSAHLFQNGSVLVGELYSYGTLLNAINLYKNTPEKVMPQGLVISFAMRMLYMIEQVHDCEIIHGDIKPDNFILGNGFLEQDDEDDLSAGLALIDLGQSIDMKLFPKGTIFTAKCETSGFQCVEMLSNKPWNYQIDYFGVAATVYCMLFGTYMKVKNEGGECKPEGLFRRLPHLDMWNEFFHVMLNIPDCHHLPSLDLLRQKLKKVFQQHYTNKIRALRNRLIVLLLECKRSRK
Chain of kinases (KINOMEscan panel) (Homo sapiens, UniProt O95747) (O95747 whole entry): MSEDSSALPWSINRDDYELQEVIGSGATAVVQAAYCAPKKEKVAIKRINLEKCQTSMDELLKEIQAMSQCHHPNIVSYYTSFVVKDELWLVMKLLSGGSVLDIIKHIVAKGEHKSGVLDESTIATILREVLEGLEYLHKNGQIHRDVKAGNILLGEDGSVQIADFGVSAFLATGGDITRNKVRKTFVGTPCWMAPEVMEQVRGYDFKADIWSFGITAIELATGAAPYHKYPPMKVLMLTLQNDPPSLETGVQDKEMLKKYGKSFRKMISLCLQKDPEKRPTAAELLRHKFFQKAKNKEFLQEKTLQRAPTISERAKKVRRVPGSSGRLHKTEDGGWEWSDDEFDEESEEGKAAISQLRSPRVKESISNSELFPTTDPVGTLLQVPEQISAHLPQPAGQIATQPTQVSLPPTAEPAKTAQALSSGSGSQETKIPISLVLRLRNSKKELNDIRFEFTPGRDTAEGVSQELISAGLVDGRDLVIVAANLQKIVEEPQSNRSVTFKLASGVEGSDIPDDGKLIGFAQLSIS

For Cc1cccc(-c2nc(Nc3ccncc3)c3ccccc3n2)n1 [NK215], the “KINOMEscan PRKCE” value [1] is listed as 0, the “KINOMEscan OSXR1” value [2] is listed as 0 and the “KINOMEscan PIM2” value [3] is listed as 18. For the same compound, the “KINOMEscan EPHB4” value [4] was 26, the “KINOMEscan EGFR” value [5] was 6 and the “KINOMEscan BUB1” value [6] was 0. The “KINOMEscan SYK” value [7] was 14, the “KINOMEscan EPHA7” value [8] was 0 and the “KINOMEscan TYK2(JH2domain-pseudokinase)” value ([9]; TYK2(JH2domain-pseudokinase)) was 40. For the same compound, the “KINOMEscan TYK2(JH1domain-catalytic)” value ([9]; kinase TYK2(JH1domain-catalytic)) was 8.
